Experimental data published in US11439607B2 (Paracelsus Neuroscience I, LLC, priority 2016, dated 2022).
Like-named read-outs stand apart in the source and are kept apart here.

Legend:
KCa3.1 = biological target: T1, KCa3.1 (Rattus norvegicus, UniProt Q9QYW1); assay: Whole cell patch clamp of K+ currents in rat primary microglia; format: cell-based; details: read-out: IC50, inhibition of microglial K+ current
T1 construct: K^+ currents were recorded from primary microglia; endogenous in cells; host or cells: primary rat (cortical) microglia
Protocol: Primary rat microglia were plated at a density of 300,000/35 mm dish for 24 hours. Whole cell patch clamp recordings were performed using an EPC9 patch-clamp amplifier and PatchMaster software (HEKA Instruments Inc.). The cell's membrane potential was held at −60 mV. External solution contained (in mM): 140 NaCl, 4 KCl, […], 1.8 CaCl2, 10 HEPES, 10 Glucose, pH 7.4. Patch solution contained (in mM): 140 […], 11 EGTA, 2 MgCl2, 10 HEPES, pH 7.2. Drugs were applied by gravity and selected with a capillary tube placed in close proximity to the recording dish. BzATP (Sigma-Aldrich, St. Louis, Mo.) was applied for 10 seconds.
KCa3.1 is highly expressed on microglia in vitro (Kaushal et al., 2007). […] Some residual K^+ current still remained which was most likely not KCa3.1-sensitive (Kettenmann et al., 2011)

[1] = Rat screening pharmacokinetics: plasma, brain, CSF exposure; format: in vivo; details: Screening PK, 10 mg/kg PO; for CSF / Free Brain / Free Plasma / concentration at 1 h / concentration at 4 h: 10 mg/kg; for concentration at 1 h / concentration at 4 h: po
Protocol: (§1) Male Sprague-Dawley rats (Crl:SD, Charles River) weighing 200-350 g were dosed to determine tissue exposure at 10 mg/kg p.o. (n=3) for screening pharmacokinetics (PK), and at 10, 30 and 100 mg/kg p.o. for the CCI studies (n=3 from each treatment group taken from the last arm of study). […] The rats were then decapitated and trunk blood was collected to in K3EDTA containing tubes. Plasma samples were generated by centrifugation (3500×g), and stored frozen at −20° C. until bioanalysis. The brains were harvested immediately following blood collection and stored frozen until bioanalysis at −20° C. For CCI animals, the plasma and brain harvests as described for the screening PK, although the tissue collection was initiated after the behavioral assessment was completed, approximately 4 hours 15 minutes after dosing. For spinal column harvest, a 20-gauge needle on a 10 ml syringe filled with cold saline was inserted into the spinal cord. The saline was used to flush the spinal column out. The spinal column tissues were then stored frozen at −20° C. prior to exposure measurements.
(§2) Prior to analysis, the brain and spinal cord samples were thawed at room temperature, weighed and homogenized using a homogenizing solution (IPA/H2O/DMSO; 30:50:20) at a ratio of 3/1 (ml/g) to generate tissue homogenates. An aliquot of 50 μl plasma, or 50 μl brain and spinal cord homogenates is mixed with 150 μl of a DMSO/ACN (20:80) solution that contains an internal standard (50 ng/ml). The diluted plasma, brain and spinal cord sample is then centrifuged (˜500 g for 15 min at 10° C.), supernatant is removed and then injected (10 μl) onto LC/MS/MS system for analysis. An Atlantis T3 column 2.6μ C18, 50×2.1 mm (Waters, Mass.) was used for analytical separation of the acid. A 6-minute mobile phase gradient was employed with mobile phase A (0.1% formic acid in water) ramping down from 99% to 1% (0-4 minutes), and then ramping back up to 99% (4-6 minutes), while ramping up solvent B (1% formic acid in ACN), from 1% to 99% (0-4 minutes), and then ramping down to 1% (4-6 minutes). Spectra was acquired in positive SRM mode with the parent mass of 324 and a daughter ion of 228.

[2] = Plasma, brain and spinal cord exposure in CCI rats; format: in vivo, rat; details: for Kp at 4 h / concentration at 4 h: male, Sprague-Dawley, rat; for concentration at 4 h: po
Protocol: as §1, §2

CCI rats = assay: Chronic constriction injury (CCI) model, von Frey paw withdrawal threshold; format: in vivo, rat; details: 4 hours after dosing
Protocol: Peripheral nerve injury was performed according to the method of Bennett and Xie (Bennett and Xie, 1988), with paw withdrawal thresholds to Von Frey filament stimulation measured as described previously (Chaplan et al., 1994; Tal and Bennett, 1994).
In the first cohort of nerve injured rats, hindpaw mechanical hypersensitivity was evident by day 7 and maintained for the duration of the experiment (see FIG. 4A). […] Experiments were run using a simple cross-over design. Tactile hypersensitivity of rats was evaluated one day prior to drug testing. Drugs were allowed to wash out for one week at which time the mechanical hypersensitivity was reassessed. Rats were then randomly re-assigned to groups prior to the next arm of the study being run. In the final arm, tissue was collected from 3 animals from each group immediately after behavioral assessment of allodynia. Dosing of drugs, assessment of mechanical thresholds and collection of tissues were performed by individual experimenters all blinded to treatments.
All CCI data are presented as mean+/−S.E.M. and were analyzed using ANOVA followed by Fisher's PLSD post-hoc analysis (StatView, Cary, N.C.) when appropriate.

Healthy rats = Healthy rats - Paw pressure test; format: in vivo; details: Senicapoc 100 mg/kg PO, 240 min after treatment
Protocol: (§3) Depending on the test, the percentage of activity was calculated from the mean value of the vehicle-treated animals and compared to naïve animals, control paw or cut-off value.

TNBS model = assay: TNBS - Colorectal distension; format: in vivo, rodent; details: Senicapoc 100 mg/kg PO, 240 min after treatment
Protocol: as §3

IC50 (KCa3.1): 10 nM | CSF ([1]; 1 h, mean ± SD): 25 ± 16 nM | Free Brain ([1]; 1 h, UBBr = 0.008): 37 ± 16 nM | Free Plasma ([1]; 1 h, UBP = 0.027): 17 ± 9 nM | CSF ([1]; 4 h, mean ± SD): 121 ± 62 nM | Free Brain ([1]; 4 h, UBBr = 0.008): 136 ± 50 nM | Free Plasma ([1]; 4 h, UBP = 0.027): 65 ± 22 nM | concentration at 1 h ([1]; male, Sprague-Dawley, rat, brain, 1 h, mean ± SD, read-out: Brain): 4660 ± 1990 nM | concentration at 1 h ([1]; male, Sprague-Dawley, rat, brain, 1 h, UBBr = 0.008, read-out: Free Brain): 37 nM | concentration at 4 h ([1]; male, Sprague-Dawley, rat, brain, 4 h, mean ± SD, read-out: Brain): 16900 ± 6040 nM | concentration at 4 h ([1]; male, Sprague-Dawley, rat, brain, 4 h, UBBr = 0.008, read-out: Free Brain): 136 nM | Kp at 1 h ([1]; male, Sprague-Dawley, rat, brain, 1 h, read-out: Free Brain/Free Plasma): 2.2 | Kp at 4 h ([1]; male, Sprague-Dawley, rat, brain, 4 h, read-out: Free Brain/Free Plasma): 2.1 | concentration at 1 h ([1]; male, Sprague-Dawley, rat, plasma, 1 h, mean ± SD, read-out: Plasma): 637 ± 322 nM | concentration at 1 h ([1]; male, Sprague-Dawley, rat, plasma, 1 h, UBP = 0.027, read-out: Free Plasma): 17 nM | concentration at 4 h ([1]; male, Sprague-Dawley, rat, plasma, 4 h, mean ± SD, read-out: Plasma): 2390 ± 748 nM | concentration at 4 h ([1]; male, Sprague-Dawley, rat, plasma, 4 h, UBP = 0.027, read-out: Free Plasma): 65 nM | concentration at 1 h ([1]; male, Sprague-Dawley, rat, 1 h, mean ± SD, read-out: CSF): 25 nM | concentration at 4 h ([1]; male, Sprague-Dawley, rat, 4 h, mean ± SD, read-out: CSF): 121 nM | Spinal Cord ([2]; 10 mg/kg PO, 4 h, LLQ 773 nM): <LLQ^γ | Plasma ([2]; 10 mg/kg PO, 4 h, n = 1 (2 samples <LLQ 773 nM)): 782^£ nM | Free Plasma ([2]; 10 mg/kg PO, 4 h, n = 1, UBP = 0.027): 21^£ nM | Kp at 4 h ([2]; brain, 10 mg/kg PO, read-out: Free Brain/Free Plasma): 1.1 ± 0.1 | Kp at 4 h ([2]; brain, 30 mg/kg PO, read-out: Free Brain/Free Plasma): 0.9 ± 0.1 | Kp at 4 h ([2]; brain, 100 mg/kg PO, read-out: Free Brain/Free Plasma): 1 ± 0.2 | concentration at 4 h ([2]; brain, 10 mg/kg, 10 mg/kg PO, UBBr = 0.008, read-out: Free Brain): 22 ± 1 nM | concentration at 4 h ([2]; brain, 10 mg/kg, 10 mg/kg PO, mean ± SD, read-out: Brain): 2770 ± 380 nM | concentration at 4 h ([2]; brain, 30 mg/kg, 30 mg/kg PO, UBBr = 0.008, read-out: Free Brain): 51 ± 16 nM | concentration at 4 h ([2]; brain, 30 mg/kg, 30 mg/kg PO, mean ± SD, read-out: Brain): 6420 ± 1960 nM | concentration at 4 h ([2]; brain, 100 mg/kg, 100 mg/kg PO, UBBr = 0.008, read-out: Free Brain): 106 ± 21 nM | concentration at 4 h ([2]; brain, 100 mg/kg, 100 mg/kg PO, mean ± SD, read-out: Brain): 13300 ± 2620 nM | concentration at 4 h ([2]; plasma, 30 mg/kg, 30 mg/kg PO, UBP = 0.027, read-out: Free Plasma): 56 ± 12 nM | concentration at 4 h ([2]; plasma, 30 mg/kg, 30 mg/kg PO, mean ± SD, read-out: Plasma): 2060 ± 452 nM | concentration at 4 h ([2]; plasma, 100 mg/kg, 100 mg/kg PO, UBP = 0.027, read-out: Free Plasma): 103 ± 3 nM | concentration at 4 h ([2]; plasma, 100 mg/kg, 100 mg/kg PO, mean ± SD, read-out: Plasma): 3800 ± 93 nM | Kp at 4 h ([2]; spinal cord, 30 mg/kg PO, read-out: Free Spinal Cord/Free Plasma): 0.8 ± 0.6 | Kp at 4 h ([2]; spinal cord, 100 mg/kg PO, read-out: Free Spinal Cord/Free Plasma): 0.7 ± 0.3 | concentration at 4 h ([2]; spinal cord, 30 mg/kg, 30 mg/kg PO, brain free fraction 0.008 used, read-out: Free Spinal Cord): 38 ± 17 nM | concentration at 4 h ([2]; spinal cord, 30 mg/kg, 30 mg/kg PO, mean ± SD, read-out: Spinal Cord): 3400 ± 2740 nM | concentration at 4 h ([2]; spinal cord, 100 mg/kg, 100 mg/kg PO, brain free fraction 0.008 used, read-out: Free Spinal Cord): 95 ± 17 nM | concentration at 4 h ([2]; spinal cord, 100 mg/kg, 100 mg/kg PO, mean ± SD, read-out: Spinal Cord): 11900 ± 2180 nM
SMILES: NC(=O)C(c1ccccc1)(c1ccc(F)cc1)c1ccc(F)cc1 [Senicapoc]
Reversal of mechanical hypersensitivity (tactile allodynia) (CCI rats; 100 mg/kg p.o.): 48% | Effect on injury-induced nociceptive behaviors at the low doses (CCI rats; low doses (10, 30 mg/kg p.o.)): lack of significant effect | % of activity vs. vehicle (Healthy rats): −12% | % of activity vs. vehicle (TNBS model): 50%
